From PubChem BioAssay AID248 (DTP/NCI, 2004)
Several values for one entry are separate records, joined by “and”; a condition that tells them apart may be missing. Identical values can stand only once. Inconclusive results and toxic doses are left out. Cut-off read from the data, not from the text of the source: active = T/C of 150% or more; inactive = T/C below 125%.

System: L1210 leukemia ip in BDF1 mice, survival T/C
Test: NCI In Vivo Anticancer Drug Screen. Data for tumor model L1210 Leukemia (intraperitoneal) in B6D2F1 (BDF1) mice
Conditions: endpoint: mean survival time, higher = longer survival
Outline: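 Tumor was transplanted into mice, which were then dosed with test compound or vehicle alone. Survival was recorded for each group, and the treated figure was expressed relative to the control figure.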

[1] = dose: 25.0 mg/kg/injection, schedule: Q04DX003 (ip), vehicle: saline
[2] = dose: 50.0 mg/kg/injection, schedule: Q01DX001 (ip), vehicle: saline
[3] = dose: 50.0 mg/kg/injection, schedule: Q04DX003 (ip), vehicle: saline
[4] = dose: 75.0 mg/kg/injection, schedule: Q01DX001 (ip), vehicle: saline
[5] = dose: 100.0 mg/kg/injection, schedule: Q01DX001 (ip), vehicle: saline
[6] = dose: 100.0 mg/kg/injection, schedule: Q01DX009 (ip), vehicle: Klucel (hydroxypropylcellulose) (HPC)
[7] = dose: 200.0 mg/kg/injection, schedule: Q04DX003 (ip), vehicle: Klucel (hydroxypropylcellulose) (HPC)
[8] = dose: 100.0 mg/kg/injection, schedule: Q04DX003 (ip), vehicle: saline with Tween-80
[9] = dose: 200.0 mg/kg/injection, schedule: Q04DX003 (ip), vehicle: saline with Tween-80
[10] = dose: 400.0 mg/kg/injection, schedule: Q04DX003 (ip), vehicle: saline with Tween-80
[11] = dose: 200.0 mg/kg/injection, schedule: Q01DX009 (ip), vehicle: Klucel (hydroxypropylcellulose) (HPC)
[12] = dose: 400.0 mg/kg/injection, schedule: Q01DX009 (ip), vehicle: Klucel (hydroxypropylcellulose) (HPC)
[13] = dose: 100.0 mg/kg/injection, schedule: Q04DX003 (ip), vehicle: Klucel (hydroxypropylcellulose) (HPC)
[14] = dose: 100.0 mg/kg/injection, schedule: Q04DX002 (ip), vehicle: saline with Tween-80
[15] = dose: 200.0 mg/kg/injection, schedule: Q04DX002 (ip), vehicle: saline with Tween-80
[16] = dose: 100.0 mg/kg/injection, schedule: Q04DX002 (ip), vehicle: Klucel (hydroxypropylcellulose) (HPC)
[17] = dose: 200.0 mg/kg/injection, schedule: Q04DX002 (ip), vehicle: Klucel (hydroxypropylcellulose) (HPC)
[18] = dose: 100.0 mg/kg/injection, schedule: Q01DX009 (ip), vehicle: saline with Tween-80
[19] = dose: 200.0 mg/kg/injection, schedule: Q01DX009 (ip), vehicle: saline with Tween-80
[20] = dose: 400.0 mg/kg/injection, schedule: Q01DX009 (ip), vehicle: saline with Tween-80
[21] = dose: 400.0 mg/kg/injection, schedule: Q04DX003 (ip), vehicle: Klucel (hydroxypropylcellulose) (HPC)
[22] = dose: 100.0 mg/kg/injection, schedule: Q04DX003 (ip), vehicle: saline

Measured: T/C

OCCN1CCN(CC/C=C2/c3ccccc3Sc3ccc(Cl)cc32)CC1
inactive: dose: 6.25 mg/kg/injection, schedule: Q01DX001 (ip), vehicle: saline 96 % of control | dose: 8.0 mg/kg/injection, schedule: Q01DX015 (ip), vehicle: saline 107 % of control | dose: 12.5 mg/kg/injection, schedule: Q01DX001 (ip), vehicle: saline 102 % of control | dose: 12.5 mg/kg/injection, schedule: Q01DX009 (ip), vehicle: saline 108 % of control | dose: 25.0 mg/kg/injection, schedule: Q01DX001 (ip), vehicle: saline 98 % of control and 122 % of control | dose: 25.0 mg/kg/injection, schedule: Q01DX009 (ip), vehicle: saline 116 % of control | [1] 110 % of control | dose: 37.5 mg/kg/injection, schedule: Q01DX001 (ip), vehicle: saline 101 % of control | [2] 113 % of control | [3] 116 % of control | [4] 102 % of control and 120 % of control | [5] 100 % of control

CCN=C(NCC)c1ccc(NC(=O)c2ccc(C(=O)Nc3ccc(C(=NCC)NCC)cc3)c(Cl)c2)cc1
inactive: dose: 1.87 mg/kg/injection, schedule: Q01DX Z (ip), vehicle: carboxymethylcellulose (CMC) 101 % of control | dose: 3.75 mg/kg/injection, schedule: Q01DX Z (ip), vehicle: carboxymethylcellulose (CMC) 97 % of control | dose: 7.5 mg/kg/injection, schedule: Q01DX Z (ip), vehicle: carboxymethylcellulose (CMC) 103 % of control

O=C(NCCCl)Nc1ccc2c3c(cccc13)CC2
inactive: [6] 87 % of control | [7] 95 % of control

CC(C)C(NC(=O)C1CSC(C)(C)N1C=O)C(=O)OC1CCCCC1 (stereo unspecified)
inactive: [8] 97 % of control | [9] 101 % of control | [10] 90 % of control

Cc1cnc(SCc2ccc(Cl)cc2)[nH]c1=S
inactive: dose: 25.0 mg/kg/injection, schedule: Q01DX Z (ip), vehicle: methylcellulose (MC) 87 % of control | dose: 50.0 mg/kg/injection, schedule: Q01DX Z (ip), vehicle: methylcellulose (MC) 89 % of control

CCOC(=O)c1ccc(NC(=O)C2CC2)cc1
inactive: [6] 113 % of control | [11] 109 % of control | [12] 104 % of control

O=C1NC(=O)C2(CCCCCCC2)N1
inactive: dose: 50.0 mg/kg/injection, schedule: Q01DX009 (ip), vehicle: Klucel (hydroxypropylcellulose) (HPC) 104 % of control | dose: 50.0 mg/kg/injection, schedule: Q04DX003 (ip), vehicle: Klucel (hydroxypropylcellulose) (HPC) 111 % of control | [6] 96 % of control | [13] 99 % of control | [11] 96 % of control | [7] 103 % of control

CC(CBr)C(=O)O (stereo unspecified)
inactive: [14] 97 % of control | [15] 97 % of control

CC1(C)C(N2CCCC2)N(C(=O)c2ccccc2)SC12c1ccccc1-c1ccccc12 (stereo unspecified)
inactive: [16] 102 % of control | [17] 105 % of control | dose: 400.0 mg/kg/injection, schedule: Q04DX002 (ip), vehicle: Klucel (hydroxypropylcellulose) (HPC) 98 % of control

O=C(Nc1[nH]nc2nccnc12)C(F)(F)F
inactive: [18] 97 % of control | [8] 105 % of control | [19] 92 % of control | [9] 97 % of control | [20] 103 % of control | [10] 100 % of control

Nc1[nH]c(=S)[nH]c(=O)c1N
inactive: dose: 12.0 mg/kg/injection, schedule: Q01DX009 (ip), vehicle: other 102 % of control | dose: 12.0 mg/kg/injection, schedule: Q04DX003 (ip), vehicle: saline 97 % of control | dose: 25.0 mg/kg/injection, schedule: Q01DX009 (ip), vehicle: other 102 % of control | [1] 104 % of control | dose: 50.0 mg/kg/injection, schedule: Q01DX009 (ip), vehicle: other 105 % of control | [3] 118 % of control | dose: 125.0 mg/kg/injection, schedule: Q01DX Z (ip), vehicle: methylcellulose (MC) 106 % of control | dose: 250.0 mg/kg/injection, schedule: Q01DX Z (ip), vehicle: methylcellulose (MC) 117 % of control

CCCC(=O)N(CC(C)C)CC(C)C
inactive: [13] 101 % of control | [7] 95 % of control | [21] 97 % of control

COC(=O)c1ccc(OC(=O)Nc2cccc(Cl)c2C)cc1
inactive: [18] 98 % of control and 100 % of control | [14] 93 % of control and 91 % of control | [19] 95 % of control and 91 % of control | [15] 96 % of control and 87 % of control | dose: 400.0 mg/kg/injection, schedule: Q04DX002 (ip), vehicle: saline with Tween-80 96 % of control and 97 % of control

OC1CCCC2CCC[N-]C12.OC1CCCC2CCC[N-]C12.[O]=[V][OH] (stereo unspecified)
inactive: dose: 24.0 mg/kg/injection, schedule: Q01DX015 (ip), vehicle: carboxymethylcellulose (CMC) 105 % of control | [1] 93 % of control | dose: 36.0 mg/kg/injection, schedule: Q01DX015 (ip), vehicle: carboxymethylcellulose (CMC) 105 % of control | [2] 100 % of control | [3] 93 % of control | dose: 54.0 mg/kg/injection, schedule: Q01DX015 (ip), vehicle: carboxymethylcellulose (CMC) 102 % of control | [22] 95 % of control

CCCCSP(SCCCC)N1CCCCC1
inactive: [22] 102 % of control | dose: 200.0 mg/kg/injection, schedule: Q04DX003 (ip), vehicle: saline 98 % of control

BrC1C2CC(c3ccccc32)C1Br (stereo unspecified)
inactive: [18] 101 % of control | [8] 94 % of control | [19] 91 % of control | [9] 93 % of control | [20] 98 % of control | [10] 95 % of control

COC(=O)NC1CC2C=CC1C1C=CC21 (stereo unspecified)
inactive: [8] 92 % of control | [9] 91 % of control | [10] 100 % of control

Cc1ccccc1NC(=O)CS
inactive: [8] 95 % of control | [9] 88 % of control

O=C(O)C1C=CCC2C(=O)OC(=O)C12 (stereo unspecified)
inactive: [4] 102 % of control | dose: 150.0 mg/kg/injection, schedule: Q01DX001 (ip), vehicle: saline 102 % of control | dose: 300.0 mg/kg/injection, schedule: Q01DX001 (ip), vehicle: saline 96 % of control

CCOC(=O)CC1=C(c2ccc(OC)cc2)c2ccc(OC)cc2C1=O
inactive: dose: 50.0 mg/kg/injection, schedule: Q01DX001 (ip), vehicle: Klucel (hydroxypropylcellulose) (HPC) 98 % of control | dose: 100.0 mg/kg/injection, schedule: Q01DX001 (ip), vehicle: Klucel (hydroxypropylcellulose) (HPC) 98 % of control | dose: 200.0 mg/kg/injection, schedule: Q01DX001 (ip), vehicle: Klucel (hydroxypropylcellulose) (HPC) 95 % of control

CCNCCNCC(Cc1ccccc1)c1ccccc1 (stereo unspecified)
inactive: dose: 25.0 mg/kg/injection, schedule: Q04DX002 (ip), vehicle: saline 86 % of control | dose: 50.0 mg/kg/injection, schedule: Q04DX002 (ip), vehicle: saline 105 % of control | dose: 100.0 mg/kg/injection, schedule: Q04DX002 (ip), vehicle: saline 93 % of control and 92 % of control

COc1ccc(/C=N/NC(=S)Nc2cccc3cccnc23)cc1OC
inactive: [5] 100 % of control | dose: 200.0 mg/kg/injection, schedule: Q01DX001 (ip), vehicle: saline 94 % of control | dose: 400.0 mg/kg/injection, schedule: Q01DX001 (ip), vehicle: saline 86 % of control

FC(F)(F)c1cccc(NC(=S)SCc2ccc(Cl)cc2)c1
inactive: dose: 15.0 mg/kg/injection, schedule: Q04DX003 (ip), vehicle: saline 102 % of control | dose: 30.0 mg/kg/injection, schedule: Q04DX003 (ip), vehicle: saline 102 % of control | dose: 60.0 mg/kg/injection, schedule: Q04DX003 (ip), vehicle: saline 102 % of control | [16] 87 % of control | [17] 112 % of control

COc1ccc(CO)cc1OC
inactive: [6] 101 % of control | [13] 97 % of control | [11] 113 % of control | [7] 94 % of control | [12] 97 % of control | [21] 94 % of control
